The values below come from patent publication US7879791B2 (Medical College of Georgia Research Institute, Inc., priority 1997, dated 2011).

Some results are limits rather than exact numbers.

Data set [1] concerns tryptophan transport system in MCSF-derived macrophages. The data set can be described thus: [3H]tryptophan uptake in MCSF-derived macrophages with competing unlabeled amino acids. Format: cell-based, human. To be noted: for effectiveness as competitor for tryptophan uptake compared with phenylalanine: titration studies. How it is done:
The graph compares fresh monocytes, MCSF-derived macrophages (day 7), and MCSF-derived macrophages activated for the preceding 24 hrs with IFNγ. All assays were performed in the presence of 140 mM NaCl. […] A logarithmic scale is used to permit comparison.
Macrophages were cultured for 7 days in MCSF and activated during the last 24 hrs with IFNγ.
This sodium-independent system was then characterized using cross-competition studies.

For data set [2] the following is noted: patients / individuals, literature reports; cited from earlier work.
For a further data set, the system named is MB49 tumor cells. The data set is described as follows: MB49 epithelial carcinoma in syngeneic hosts. Format: in vivo, mouse. The procedure: In light of the data herein showing that the allogeneic fetus is able to protect itself against attack by the maternal immune system through expression of IDO, and given the expression of IDO in tumors as cited above, it was tested whether a similar mechanism allowed tumor cells to evade immune attack. The MB49 epithelial carcinoma model was chosen for proof of concept because it is an aggressive, lethal malignancy when innoculated into syngeneic hosts, but it can be rendered susceptible to immune attack if the host's immune system is suitably activated (Chen, et al. 1997 J. Immunol. 159, 351-359). […] MB49 tumor cells (1×10^6) were injected subcutaneously into syngeneic C57/B16 hosts. […] By day 10, all animals had evidence of initial tumor formation (palpable mass). By day 15, control animals were visibly ill and the experiment was terminated. Animals were sacrificed on day 11-15 for histologic examination.

In another data set the test system is T cells. The data set is described as follows: T cell proliferation (thymidine incorporation) in co-culture conditioned medium with tryptophan titrated back. Format: cell-based, human. How it is done:
FIG. 1 is a graph of thymidine incorporation (cpm) by T cells in the presence of supplemental amino acids. […] Human monocytes were allowed to differentiate into macrophages then co-cultured with mitogen-activated T cells (anti-CD3). Fresh PBMC were then suspended in this medium and activated with additional anti-CD3. […] Control cultures received fresh medium. Proliferation was measured by 4 hr thymidine incorporation after 72 hrs. Error bars show SD.
Fresh lymphocytes were suspended in conditioned medium and activated with additional mitogen. Care was taken to exclude all traces of fresh medium.
For orientation: Dividing cells build labelled thymidine or BrdU into new DNA.

Data set [3] concerns MCSF-derived macrophages. The data set is described as follows: Elimination kinetics of tryptophan in co-cultures of MCSF-derived macrophages and mitogen-activated T cells. Format: cell-based, human. To be noted: when tryptophan was not limiting. The procedure:
MCSF-derived macrophages were cultured for 24 hrs with autologous T cells, with or without anti-CD3 mitogen. The medium was replaced with fresh medium, and supernatant from replicate cultures harvested at the times shown. […] Error bars (less than 10%) are omitted for clarity.
Depletion of tryptophan is rapid. Macrophages were co-cultured with T cells and mitogen for 24 hrs to allow up-regulation of the tryptophan-depletion pathway, then fresh medium was added and the kinetics of elimination measured. […] This rapid rate of tryptophan depletion could not be attributed to consumption by cellular metabolism.

Data set [4] has as its target T1, IDO (Homo sapiens, UniProt P14902). The data set is described as follows: Macrophage-mediated suppression of T cell proliferation in co-cultures of MCSF-derived macrophages and T cells with anti-CD3. Format: cell-based. Also on record: endogenous in cells; host or cells: MCSF-derived human monocyte-derived macrophages co-cultured with T cells. To be noted: 10x normal tryptophan. How it is done:
Proliferation was measured after 72 hrs by thymidine incorporation. The level of background proliferation contributed by macrophages is indicated by the dotted line. In FIG. 4B, macrophages were seeded at both low density (5×10^4/well) and high density (2×10^5/well).
Target sequence in this assay (P14902 whole entry): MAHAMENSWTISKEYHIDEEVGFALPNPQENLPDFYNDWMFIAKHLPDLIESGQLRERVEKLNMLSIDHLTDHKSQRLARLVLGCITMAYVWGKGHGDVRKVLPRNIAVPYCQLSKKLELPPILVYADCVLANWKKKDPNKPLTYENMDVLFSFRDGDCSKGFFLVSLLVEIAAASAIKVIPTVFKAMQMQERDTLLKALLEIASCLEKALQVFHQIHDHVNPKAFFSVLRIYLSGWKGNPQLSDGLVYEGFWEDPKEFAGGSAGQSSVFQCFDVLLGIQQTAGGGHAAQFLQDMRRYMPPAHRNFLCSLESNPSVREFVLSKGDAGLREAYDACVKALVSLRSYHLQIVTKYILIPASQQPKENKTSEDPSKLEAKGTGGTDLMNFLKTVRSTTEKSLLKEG

The test system of data set [5] is MCSF-derived macrophages. The data set can be described thus: Induction of IDO activity (tryptophan degradation) in MCSF-derived macrophages by IFNγ with or without CD40L. Format: cell-based, human. The source says: MCSF-derived macrophages were activated for 24 hrs with various concentrations of recombinant IFNγ, in the presence or absence of recombinant CD40-L trimer. […] SD was less than 10%.
The response of MCSF-derived macrophages to IFNγ in the presence or absence of recombinant CD40L (prepared as a homo-trimer in order to signal via CD40 in soluble form, gift of Bill Fanslow, Immunex Corporation) was compared.

The target of data set [6] is T1, IDO. More on the design: host or cells: tumor xenografts in IFNγ-treated animals. To be noted: IFNγ-treated animals; cited from earlier work.
Target sequence in this assay (P14902 whole entry, species assumed): as the sequence (P14902 whole entry) above
Setting [7] is: group n = 7, pellets 0.9 mg/hr, 7-day release.

For the molecule `N[C@@H](Cc1ccc(O)cc1)C(=O)O` [Tyrosine], the “effectiveness as competitor for tryptophan uptake compared with phenylalanine” value (“effectiveness … compared with phenylalanine” for short) in data set [1] was “even less effective competitors”.
With `CC(n1cc(C[C@H](N)C(=O)O)c2ccccc21)n1cc(C[C@H](N)C(=O)O)c2ccccc21` [1-1′ ethylidenebis-[tryptophan]], the “autoimmune or adverse illness reported” value in data set [2] was “eosinophilia-myalgia syndrome”.
Turning to `CC(C)C[C@H](N)C(=O)O` [leucine], the “effectiveness … compared with phenylalanine” value in data set [1] was “even less effective competitors”.
As to `NC1(C(=O)O)CC2CCC1C2` (centres unmarked) [BCH, 2-amino-2-norborane-carboxylic acid], the “total tryptophan transport still available” value in data set [1] (system L inhibited by 8 mM BCH) is 30-50%. For the same molecule, in data set [1], the “effectiveness … compared with phenylalanine” value was “even less effective competitors”.
For the molecule `N[C@@H](Cc1ccccc1)C(=O)O` [phenylalanine], the “inhibition of tryptophan uptake by competing unlabeled amino acid” value in data set [1] (8 mM each, sodium-independent, FIG. 8B) is “could not fully block”.
On to `Cn1cc(C[C@H](N)C(=O)O)c2ccccc21` [1-methyl-tryptophan], for which, in the data set on MB49 tumor cells (administration days 1-7), the “continuation of responses after the period of inhibitor administration” value was in the range of 4 to 7 days. The “histology (day 15)” value in the data set on MB49 tumor cells (day 15) was “apoptosis, necrosis,”. Further, in the data set with MB49 tumor cells (setting [7]), the complete responses is given as 1 and the partial responses was determined as 6. The “tumor growth compared to vehicle control” value with MB49 tumor cells (immunocompetent, syngeneic hosts) was “significantly reduced tumor growth”. For the same molecule, in the data set on MB49 tumor cells (mouse, in vivo), the performance status entry is on record as “normal” and the visible metastases result was “none”. In the data set with MB49 tumor cells (residual tumor necrotic), the “size of residual tumor” value is on record as 1 cm (necrotic).
Consider `N[C@@H](Cc1c[nH]c2ccccc12)C(=O)O` [tryptophan], for which the EC50 in the data set on T cells (Homo sapiens, T-cell, 72 h, read-out: half-maximal concentration for T cell proliferation) is roughly 500 nM. In addition, the “concentration sufficient to initiate low but readily detectable T cell proliferation” value in the data set with T cells (tryptophan in conditioned medium) is reported as 50 nM. The “initial rate of tryptophan elimination” value in the data set with MCSF-derived macrophages [3] is recorded as “up to 20,000 pmol/10^6 cells/hr”. Moreover, the “autoimmune or adverse illness reported” value in data set [2] is “multiple autoimmune disorders”. For the same molecule, the “reversal of suppression by supplemental tryptophan” value was “remained able to suppress” at IDO [4] (high seeding density (2x10^5/well)) and “effectively reversed suppression” on IDO [4] (low seeding density (5x10^4/well)).
“IFNγ: recombinant interferon gamma, inducer of IDO”: in the data set on MCSF-derived macrophages [5] (in the presence of CD40L), the “IFNγ concentration at which significant response occurred” value was no less than 1 U/ml. In addition, the “concentration required for maximal induction of tryptophan degradation” value with MCSF-derived macrophages [5] (recombinant IFNγ alone, 24 hrs) was no less than 100 U/ml.
Regarding `N[C@@H](Cc1c[nH]c2ccc(O)cc12)C(=O)O` [L-5-hydroxytryptophan], in data set [2], the “autoimmune or adverse illness reported” value is given as “high frequency of a scleroderma-like illness”.

B1: CD40L: recombinant CD40L prepared as a homo-trimer to signal via CD40 in soluble form (protein, UniProt P29965 47-261, looked up)
extracellular domain: HRRLDKIEDERNLHEDFVFMKTIQRCNTGERSLSLLNCEEIKSQFEGFVKDIMLNKEETKKENSFEMQKGDQNPQIAAHVISEASSKTTSVLQWAEKGYYTMSNNLVTLENGKQLTVKRQGLYYIYAQVTFCSNREASSQAPFIASLCLKSPGRFERILLRAANTHSSAKPCGQQSIHLGGVFELQPGASVFVNVTDPSQVSHGTGFTSFGLLKL
modifications: extracellular domain soluble homo-trimer
notes: recombinant CD40L prepared as a homo-trimer to signal via CD40 in soluble form
In the case of B1, in the data set with MCSF-derived macrophages [5] (CD40L alone), the “effect on enzyme activity” value is reported as “little effect”. Further, in the data set on MCSF-derived macrophages [5] (CD40L combined with IFNγ), the “shift of the dose-response curve of IFNγ” value is on record as “one to two orders of magnitude”.

B2: IFNγ: recombinant interferon gamma, inducer of IDO (protein, UniProt P01579 24-161, looked up)
Interferon gamma: QDPYVKEAENLKKYFNAGHSDVADNGTLFLGILKNWKEESDRKIMQSQIVSFYFKLFKNFKDDQSIQKSVETIKEDMNVKFFNSNKKKRDDFEKLTNYSVTDLNVQRKAIHELIQVMAELSPAAKTGKRKRSQMLFRG
Consider B2, for which the “reduction in tumor tryptophan compared to controls” value with IDO [6] was “approximately 80%”.
